Drawing on PubChem BioAssay (NCI), this text covers TGI and GI50 for 21 compounds.

SMILES strings stand for the structures. “And” between values parts separate entries of the source, which are not always exact repeats. Equal entries are not always repeated.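 1) Cells in 96-well plates. 2) Compound, 48 h, 5 concentrations. 3) Linear interpolation between surrounding doses. 4) Unreached endpoint = highest concentration. GI50: concentration for 50% inhibition of growth. TGI: concentration producing complete growth inhibition.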

Some test systems named below: A498 renal; HCT-15 colon; IGROV1 ovarian; KM20L2 colon; RPMI-8226 leukemia; SF-295 CNS; SK-MEL-2 melanoma; HS 578T breast; MDA-MB-231 breast; MDA-N.
Common to all, as to test: inhibition of tumour cell growth, NCI panel, 48 h

Turning to `CN(C)c1n/c(=N/c2ncn[nH]2)ss1`, the TGI in the assay with A498 renal, in the assay with HCT-15 colon, in the assay with IGROV1 ovarian, in the assay on KM20L2 colon, in the assay on RPMI-8226 leukemia and in the assay with SF-295 CNS was greater than 100 µM in each case. This compound registered a TGI in the assay with SK-MEL-2 melanoma greater than 100 µM.
With `Cn1c2c(c3ccccc31)CCN(CCCCN1CCN(c3cccc(Cl)c3)CC1)C2=O`, the TGI in the assay with A498 renal is 27.7 µM; with HCT-15 colon, 29.7 µM; in the assay with IGROV1 ovarian it was 47 µM; in the assay with KM20L2 colon, 15.5 µM; in the assay on RPMI-8226 leukemia, 27.4 µM; in the assay on SF-295 CNS it was 34 µM. For the same compound, the TGI with SK-MEL-2 melanoma turned out to be 31.1 µM.
For the compound `Nc1nc(N)c2nc(CNc3ccc(C(=O)NC(CCCNC(=O)c4ccccc4C(=O)O)C(=O)O)cc3)cnc2n1` (configuration not stated), the TGI with A498 renal, in the assay on HCT-15 colon, in the assay on HS 578T breast, in the assay with IGROV1 ovarian, in the assay with KM20L2 colon and in the assay on MDA-MB-231 breast was greater than 100 µM throughout. The TGI in the assay on MDA-N, in the assay with RPMI-8226 leukemia and with SK-MEL-2 melanoma was greater than 100 µM throughout. The GI50 in the assay on HCT-15 colon is 0.00105 µM; in the assay with IGROV1 ovarian, 0.0249 µM; in the assay with MDA-N, 0.00127 µM; in the assay with SF-295 CNS, < 0.01 µM and 0.00332 µM; with SK-MEL-2 melanoma, greater than 100 µM.
Take `c1ccc(COCC2OC3c4ccccc4COC3C2OCc2ccccc2)cc1` (configuration not stated): the TGI in the assay on HCT-15 colon, in the assay on IGROV1 ovarian, in the assay with KM20L2 colon, in the assay on RPMI-8226 leukemia, in the assay on SF-295 CNS and in the assay on SK-MEL-2 melanoma was greater than 100 µM in each case.
With `COC(OC)[C@@H](C)[C@H](O)[C@](C)(O)C1OC(C)(C)OC(C(C)C=C(C)C)C1C` (some centres not stated), the TGI in the assay with A498 renal, in the assay with HCT-15 colon, with IGROV1 ovarian, in the assay on KM20L2 colon, in the assay on RPMI-8226 leukemia and in the assay with SF-295 CNS was greater than 100 µM throughout. The TGI with SK-MEL-2 melanoma was greater than 100 µM.
For the compound `CCOC(=O)NC(=O)c1cn(CCN2CCN(C(=O)CCCCCCCCCCNc3ncnc4nc[nH]c34)CC2)c(=O)[nH]c1=O`, the TGI in the assay on HCT-15 colon, in the assay on IGROV1 ovarian, in the assay with KM20L2 colon, in the assay with RPMI-8226 leukemia, in the assay with SF-295 CNS and in the assay with SK-MEL-2 melanoma was greater than 100 µM throughout.
`O=C(NCCCCCCCCNC(=O)c1cccc2ccccc12)c1cccc2ccccc12`: the TGI with A498 renal is 56.8 µM; with HCT-15 colon, greater than 100 µM; in the assay with IGROV1 ovarian it was greater than 76.1 µM; with KM20L2 colon, greater than 100 µM; in the assay with MDA-N it was greater than 100 µM; in the assay on RPMI-8226 leukemia it was greater than 100 µM. In addition, the TGI with SF-295 CNS is greater than 56.1 µM; with SK-MEL-2 melanoma, greater than 100 µM.
For `CCC(C(=O)[O-])C(=O)[O-].CCC(C(=O)[O-])C(=O)[O-].N.N.NCCCCCCN.[Pt+4].[Pt+4]`, the GI50 in the assay on A498 renal was 8.85 µM; in the assay on HCT-15 colon, 5 µM; with IGROV1 ovarian it was 8.13 µM; with KM20L2 colon it was 15 µM; with RPMI-8226 leukemia it was 3.66 µM; in the assay on SF-295 CNS it was 23.2 µM. Moreover, in the assay with SK-MEL-2 melanoma, the GI50 is 8.4 µM. For the same compound, the TGI was found to be 18.1 µM in the assay on A498 renal; 13.8 µM in the assay on HCT-15 colon; 18.7 µM in the assay with IGROV1 ovarian; 29 µM with KM20L2 colon; 11.9 µM in the assay with RPMI-8226 leukemia; 50 µM in the assay on SF-295 CNS. In the assay with SK-MEL-2 melanoma, the TGI turned out to be 16.9 µM.
As for `OC(c1ccccn1)C1CNc2ccccc21` (configuration not stated), the TGI in the assay with A498 renal, in the assay on HCT-15 colon, with IGROV1 ovarian, in the assay on KM20L2 colon, in the assay with RPMI-8226 leukemia and in the assay on SF-295 CNS was greater than 100 µM each time. The same compound yielded a TGI with SK-MEL-2 melanoma greater than 100 µM.
As to `Cc1ccc2[nH]c3c(ncc4[nH]c5ccccc5c43)c2c1`, the TGI turned out to be 29.6 µM in the assay with IGROV1 ovarian; 31.8 µM in the assay with KM20L2 colon; 44.3 µM in the assay on RPMI-8226 leukemia; 30.9 µM with SF-295 CNS; 33.6 µM with SK-MEL-2 melanoma.
Turning to `COc1cc(-c2cc(=O)c3cc(C)c(C)c(C(=O)O)c3o2)cc(OC)c1OC`, the TGI with A498 renal, in the assay on HCT-15 colon, in the assay with IGROV1 ovarian, with KM20L2 colon, with RPMI-8226 leukemia and in the assay with SF-295 CNS was greater than 100 µM each time. The same compound registered a TGI in the assay with SK-MEL-2 melanoma greater than 100 µM.
For the compound `COC12CC(=O)C(C(C)=O)=C(O)C1(C)c1c(OC(C)=O)c(C)c(O)c(C(C)=O)c1O2` (configuration not stated), the TGI was 78.1 µM in the assay on A498 renal; greater than 100 µM with HCT-15 colon; greater than 100 µM with IGROV1 ovarian; greater than 100 µM in the assay with KM20L2 colon; greater than 100 µM in the assay with RPMI-8226 leukemia; greater than 100 µM in the assay with SF-295 CNS. Moreover, the TGI in the assay with SK-MEL-2 melanoma is 53.6 µM.
On to `CC1=C(c2cc(C(=O)Nc3cccc(C(F)(F)F)c3)ncn2)Sc2ccccc2N1`, for which the TGI in the assay with A498 renal, in the assay on HCT-15 colon, in the assay on IGROV1 ovarian, with KM20L2 colon, in the assay on RPMI-8226 leukemia and in the assay with SF-295 CNS was greater than 100 µM throughout. In the assay on SK-MEL-2 melanoma, the TGI is greater than 100 µM.
For `O=C(CC(=O)C1CCOC1=O)C(=O)Nc1ccc(Cl)cc1Cl` (configuration not stated), the TGI in the assay on A498 renal, with HCT-15 colon, in the assay on IGROV1 ovarian, in the assay with KM20L2 colon, with RPMI-8226 leukemia and in the assay on SF-295 CNS was greater than 100 µM throughout. This compound also displayed a TGI in the assay with SK-MEL-2 melanoma greater than 100 µM.
In the case of `O=C(NNC(=O)c1cc(/C=C/c2cccc([N+](=O)[O-])c2)[nH]c(=S)n1)Nc1ccc(Cl)cc1`, the TGI in the assay on A498 renal is greater than 100 µM; in the assay with HCT-15 colon, greater than 100 µM; in the assay on IGROV1 ovarian, greater than 100 µM; with KM20L2 colon it was greater than 100 µM; with RPMI-8226 leukemia, 52.9 µM; with SF-295 CNS it was greater than 100 µM. Besides, the TGI in the assay on SK-MEL-2 melanoma is greater than 100 µM.
`O=C1c2c(O)cc(O)cc2OC(c2ccc(O)cc2O)C1O` (configuration not stated): the GI50 in the assay on A498 renal, in the assay on HCT-15 colon, in the assay with IGROV1 ovarian, in the assay on RPMI-8226 leukemia and in the assay on SK-MEL-2 melanoma was greater than 100 µM in each case. For the same compound, the TGI in the assay on A498 renal, with HCT-15 colon, in the assay on HS 578T breast, in the assay with IGROV1 ovarian, in the assay on MDA-MB-231 breast and in the assay with MDA-N was greater than 100 µM in each case. Moreover, the TGI with RPMI-8226 leukemia, in the assay with SF-295 CNS and in the assay with SK-MEL-2 melanoma was greater than 100 µM in each case.
As for `CCC[CH2][Sn]([CH2]CCC)([O]C(=O)C1CCC(=O)N1)[O]C(=O)C1CCC(=O)N1` (configuration not stated), the GI50 was 0.21 µM with A498 renal; 0.182 µM in the assay with HCT-15 colon; 1.1 µM in the assay on IGROV1 ovarian; 0.446 µM in the assay with KM20L2 colon; 0.124 µM in the assay on RPMI-8226 leukemia; 0.274 µM in the assay with SF-295 CNS. For the same compound, the GI50 in the assay on SK-MEL-2 melanoma was 0.181 µM. Moreover, the TGI amounted to 0.517 µM in the assay with A498 renal; 0.353 µM in the assay with HCT-15 colon; 2.48 µM in the assay on IGROV1 ovarian; 1.69 µM in the assay on KM20L2 colon; 0.669 µM in the assay on RPMI-8226 leukemia; 1.05 µM with SF-295 CNS. The same compound registered a TGI in the assay with SK-MEL-2 melanoma of 0.367 µM.
For `Cc1ccc(C)c(NC(=O)CCc2nc(=S)[nH][nH]2)c1`, the TGI in the assay on A498 renal, in the assay with HCT-15 colon, in the assay with IGROV1 ovarian, in the assay on KM20L2 colon, in the assay on RPMI-8226 leukemia and in the assay with SF-295 CNS was greater than 100 µM throughout. For the same compound, the TGI with SK-MEL-2 melanoma was greater than 100 µM.
Take `O=C1/C(=C/c2ccccc2)CN(C(=O)OCc2ccccc2)C/C1=C\c1ccccc1`: the TGI with A498 renal is greater than 31.6 µM; in the assay with HCT-15 colon, 20.8 µM; in the assay with HS 578T breast, 10.1 µM; in the assay on IGROV1 ovarian, 23.8 µM; in the assay on KM20L2 colon, 18.9 µM; with MDA-MB-231 breast, 50.4 µM. The TGI in the assay on MDA-N is 13.1 µM; in the assay with RPMI-8226 leukemia, 0.737 µM and 0.647 µM; in the assay with SF-295 CNS, 26.7 µM; in the assay with SK-MEL-2 melanoma it was 44.8 µM. Besides, the GI50 in the assay with HCT-15 colon is 4.01 µM; with RPMI-8226 leukemia, 0.169 µM and 0.2 µM; in the assay with SF-295 CNS it was 3.63 µM.
As to `CC/C(C)=C1\OC(=O)C(C)C(O)C(Cc2cccnc2)NC(=O)C(NC(=O)c2ncccc2O)C(C)OC1=O` (configuration not stated), the TGI in the assay on A498 renal, with HCT-15 colon, in the assay on HS 578T breast, with IGROV1 ovarian, with MDA-MB-231 breast and in the assay with MDA-N was greater than 100 µM throughout. For the same compound, the TGI with RPMI-8226 leukemia, in the assay on SF-295 CNS and in the assay with SK-MEL-2 melanoma was greater than 100 µM each time.
With `Cn1c(=S)c2[nH]c(SCCN3CCCC3)nc2n(C)c1=O`, the TGI in the assay on A498 renal, in the assay with HCT-15 colon, with HS 578T breast, with IGROV1 ovarian, in the assay on MDA-MB-231 breast and in the assay with MDA-N was greater than 100 µM throughout. Besides, the TGI with RPMI-8226 leukemia, with SF-295 CNS and in the assay on SK-MEL-2 melanoma was greater than 100 µM in each case.
